One block for each compound: values may come before it. Where a SMILES comes first, the peptide text is derived from it. [ ]: non-standard residue; d: D form. The star is where a group is joined. Asu = N[C@@H](CCCCCC(=O)O)C(=O)O; aIle = CC[C@@H](C)[C@H](N)C(=O)O; NHOH = ON*
Assays:
Mus musculus = species on record: Mus musculus; assay: Effective concentration in histone deacetylases (HDAC) using p21 promoter assay
Histone deacetylase 1 [1] = biological target: T1, Histone deacetylase 1 (Mus musculus, UniProt O09106)
Description: (§1) Inhibitory activity against histone deacetylases (HDAC1) prepared from mouse melanoma B16/BL6 cells

[2] = biological target: T2, Protein deacetylase HDAC6 (Mus musculus, UniProt Q9Z2V5); assay: Inhibitory activity against histone deacetylase 6 prepared from mouse melanoma B16/BL6 cells; format: cell-based
T2 sequence (Q9Z2V5 whole entry): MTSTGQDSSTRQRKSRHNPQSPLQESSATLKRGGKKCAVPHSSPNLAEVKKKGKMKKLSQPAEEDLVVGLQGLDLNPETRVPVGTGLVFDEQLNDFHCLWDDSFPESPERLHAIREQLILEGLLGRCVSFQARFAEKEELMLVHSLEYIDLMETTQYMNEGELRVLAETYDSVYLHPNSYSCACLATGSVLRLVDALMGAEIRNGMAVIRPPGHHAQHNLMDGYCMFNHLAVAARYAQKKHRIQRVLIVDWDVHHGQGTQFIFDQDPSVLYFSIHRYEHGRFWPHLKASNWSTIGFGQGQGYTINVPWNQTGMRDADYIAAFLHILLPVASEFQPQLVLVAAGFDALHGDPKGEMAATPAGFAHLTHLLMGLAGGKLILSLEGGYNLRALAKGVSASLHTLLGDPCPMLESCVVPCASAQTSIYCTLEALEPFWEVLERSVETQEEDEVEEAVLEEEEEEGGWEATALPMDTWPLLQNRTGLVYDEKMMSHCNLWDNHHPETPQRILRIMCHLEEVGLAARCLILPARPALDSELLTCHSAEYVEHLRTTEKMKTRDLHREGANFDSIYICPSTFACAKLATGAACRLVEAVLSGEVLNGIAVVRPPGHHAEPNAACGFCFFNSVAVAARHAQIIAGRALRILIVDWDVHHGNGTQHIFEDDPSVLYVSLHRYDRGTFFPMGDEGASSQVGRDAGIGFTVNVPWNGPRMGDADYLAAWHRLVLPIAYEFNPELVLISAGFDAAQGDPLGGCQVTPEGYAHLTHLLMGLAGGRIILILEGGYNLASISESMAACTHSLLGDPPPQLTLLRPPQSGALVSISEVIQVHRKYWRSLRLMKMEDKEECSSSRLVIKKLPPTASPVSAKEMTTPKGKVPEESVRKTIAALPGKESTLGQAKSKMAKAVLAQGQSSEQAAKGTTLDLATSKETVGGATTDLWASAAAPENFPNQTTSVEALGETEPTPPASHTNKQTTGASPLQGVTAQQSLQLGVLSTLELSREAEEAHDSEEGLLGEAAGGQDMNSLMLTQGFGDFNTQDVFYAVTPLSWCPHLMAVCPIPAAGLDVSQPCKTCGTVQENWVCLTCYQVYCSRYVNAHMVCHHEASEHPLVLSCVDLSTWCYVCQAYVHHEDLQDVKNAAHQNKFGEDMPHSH

Histone deacetylase 8 = biological target: T3, Histone deacetylase 8 (Mus musculus, UniProt Q8VH37); assay: Inhibitory activity against histone deacetylase 8 prepared from mouse melanoma B16/BL6 cells; format: cell-based
T3 sequence (Q8VH37 whole entry): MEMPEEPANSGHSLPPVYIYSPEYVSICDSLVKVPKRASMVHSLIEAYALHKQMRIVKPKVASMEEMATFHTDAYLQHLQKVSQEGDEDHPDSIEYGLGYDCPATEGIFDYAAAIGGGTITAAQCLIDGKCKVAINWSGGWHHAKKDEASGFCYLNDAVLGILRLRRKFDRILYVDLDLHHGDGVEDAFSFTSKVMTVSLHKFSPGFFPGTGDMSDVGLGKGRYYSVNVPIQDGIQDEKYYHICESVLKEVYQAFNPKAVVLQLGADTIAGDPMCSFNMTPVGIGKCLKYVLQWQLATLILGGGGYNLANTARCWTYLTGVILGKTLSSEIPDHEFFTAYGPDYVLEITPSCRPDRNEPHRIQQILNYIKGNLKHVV

Histone deacetylase 1 [3] = biological target: T1, Histone deacetylase 1; details: b16/bl6
Description: as §1

Histone deacetylase = assay: Inhibitory activity against histone deacetylases (HDAC) prepared from mouse melanoma B16/BL6 cells; format: cell-based

T1 sequence (O09106 whole entry): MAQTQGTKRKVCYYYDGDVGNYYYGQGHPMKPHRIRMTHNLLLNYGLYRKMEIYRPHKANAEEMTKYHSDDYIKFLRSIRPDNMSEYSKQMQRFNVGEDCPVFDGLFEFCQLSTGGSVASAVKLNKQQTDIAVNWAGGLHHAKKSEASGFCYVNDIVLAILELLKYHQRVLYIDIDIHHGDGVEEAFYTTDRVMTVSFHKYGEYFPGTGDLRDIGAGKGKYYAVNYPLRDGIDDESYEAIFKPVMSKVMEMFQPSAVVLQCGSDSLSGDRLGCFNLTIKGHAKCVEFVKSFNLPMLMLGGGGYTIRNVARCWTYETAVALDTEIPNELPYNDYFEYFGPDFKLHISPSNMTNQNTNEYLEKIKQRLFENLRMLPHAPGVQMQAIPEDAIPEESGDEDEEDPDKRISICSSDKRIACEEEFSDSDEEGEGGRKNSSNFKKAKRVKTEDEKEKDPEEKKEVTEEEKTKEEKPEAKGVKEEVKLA

Structure (SMILES): CC(/C=C/C(=O)NO)=C\[C@@H](C)C(=O)c1ccc(N(C)C)cc1 [TRICHOSTATIN]
EC1000 (Mus musculus): 0.19 µM

Structure (SMILES): CC[C@H](C)[C@@H]1NC(=O)[C@@H](Cc2ccc(OC)cc2)NC(=O)[C@H](CCCCCC(=O)NO)NC(=O)[C@H]2CCCN2C1=O (cyclo([Asu](NHOH)[dY](Me)I[dP]))
IC50 (Histone deacetylase 1 [1]): 0.4 nM

Structure (SMILES): CC[C@@H](C)[C@@H]1NC(=O)[C@@H](Cc2ccc(OC)cc2)NC(=O)[C@H](CCCCCN(O)C=O)NC(=O)[C@H]2CCCN2C1=O
IC50 (Histone deacetylase 1 [1]): 67 nM
IC50 [2]: 178 nM
EC1000 (Mus musculus): 0.61 µM
IC50 (Histone deacetylase 8): 59 nM

Structure (SMILES): CC[C@@H](C)[C@@H]1NC(=O)[C@@H](Cc2ccc(OC)cc2)NC(=O)[C@H](CCCCCN(O)C=O)NC(=O)[C@@H]2CCCN2C1=O
IC50 ([2]; b16/bl6): 29 nM
IC50 (Histone deacetylase 8; b16/bl6): 34 nM
IC50 (Histone deacetylase 1 [3]): 33 nM

Structure (SMILES): CC[C@@H](C)[C@@H]1NC(=O)[C@@H](Cc2ccc(OC)cc2)NC(=O)[C@H](CCCCCC(=O)NO)NC(=O)[C@H]2CCCN2C1=O (cyclo([Asu](NHOH)[dY](Me)[aIle][dP]))
EC1000 (Mus musculus): 0.022 µM

Structure (SMILES): CC[C@@H](C)[C@@H]1NC(=O)[C@@H](Cc2ccc(OC)cc2)NC(=O)[C@H](CCCCCCN(O)C=O)NC(=O)[C@@H]2CCCCN2C1=O
IC50 (Histone deacetylase): 1350 nM

Structure (SMILES): CC[C@@H](C)[C@@H]1NC(=O)[C@@H](Cc2ccc(OC)cc2)NC(=O)[C@H](CCCCCCN(O)C=O)NC(=O)[C@H]2CCCCN2C1=O
IC50 (Histone deacetylase): 893 nM

Structure (SMILES): CC[C@@H](C)[C@@H]1NC(=O)[C@@H](Cc2ccc(OC)cc2)NC(=O)[C@H](CCCCCCC(=O)NO)NC(=O)[C@@H]2CCCCN2C1=O
IC50 (Histone deacetylase): 3.96 nM

Structure (SMILES): CC[C@@H](C)[C@@H]1NC(=O)[C@@H](Cc2ccc(OC)cc2)NC(=O)[C@H](CCCCCN(O)C=O)NC(=O)[C@@H]2CCCCN2C1=O
IC50 (Histone deacetylase): 141 nM

Continued, values first:

IC50 (Histone deacetylase): 43800 nM
Structure (SMILES): CC[C@@H](C)[C@@H]1NC(=O)[C@@H](Cc2ccc(OC)cc2)NC(=O)[C@H](CCCCCN(O)C(C)=O)NC(=O)[C@H]2CCCCN2C1=O

IC50 (Histone deacetylase): 957 nM
Structure (SMILES): CC[C@@H](C)[C@@H]1NC(=O)[C@@H](Cc2ccc(OC)cc2)NC(=O)[C@H](CCCCN(O)C=O)NC(=O)[C@H]2CCCCN2C1=O

IC50 (Histone deacetylase 1 [1]): 26 nM
IC50 [2]: 782 nM
IC50 (Histone deacetylase): 84 nM
IC50 (Histone deacetylase 8): 46 nM
Structure (SMILES): CC[C@@H](C)[C@@H]1NC(=O)[C@@H](Cc2ccc(OC)cc2)NC(=O)[C@H](CCCCCN(O)C=O)NC(=O)[C@H]2CCCCN2C1=O

IC50 (Histone deacetylase): 88500 nM
Structure (SMILES): CC[C@@H](C)[C@@H]1NC(=O)[C@@H](Cc2ccc(OC)cc2)NC(=O)[C@H](CCCCN(O)C(C)=O)NC(=O)[C@@H]2CCCCN2C1=O

IC50 (Histone deacetylase): 1392 nM
Structure (SMILES): CC[C@@H](C)[C@@H]1NC(=O)[C@@H](Cc2ccc(OC)cc2)NC(=O)[C@H](CCCCN(O)C=O)NC(=O)[C@@H]2CCCCN2C1=O

IC50 (Histone deacetylase): 58000 nM
Structure (SMILES): CC[C@@H](C)[C@@H]1NC(=O)[C@@H](Cc2ccc(OC)cc2)NC(=O)[C@H](CCCCCN(O)C(C)=O)NC(=O)[C@@H]2CCCCN2C1=O

IC50 (Histone deacetylase): 88400 nM
Structure (SMILES): CC[C@@H](C)[C@@H]1NC(=O)[C@@H](Cc2ccc(OC)cc2)NC(=O)[C@H](CCCCN(O)C(C)=O)NC(=O)[C@H]2CCCCN2C1=O
